{
  "source": "patent US10139394B2",
  "about": "“Method for controlling cancer metastasis or cancer cell migration by modulating the cellular level of lysyl tRNA synthetase” (Medicinal Bioconvergence Research Center, priority 2008, dated 2018)",
  "key": {"KRS and EPRS": {"tested_on": "KRS and EPRS", "assay": "Co-immunoprecipitation of KRS with EPRS (multi-ARS complex)", "assay_type": "cell-based", "conditions": "A549 cells; absence of LY compound; FIG. 12", "procedure": "In FIG. 7, A549 cells were treated with laminin (10 ug/ml) and the level of 67LR, 37LRP and KRS was determined by Western blotting at the indicated times. Hsp90 and Cadherin were used as markers for cytoplasm and membrane, respectively. In FIG. 8, A549 cells untreated or treated with laminin for 1 h were subjected to immunofluorescence staining with anti-67LR (MLuC5, Santacruz, sc-59732) (red) and -KRS antibodies (green). In FIG. 9, A549 cells were treated with U73122 (U), staurosporin (ST) and LY294002 (LY) that inhibit PLC-gamma, PKC and PI3K, respectively, for 3 hr, then with laminin for 1 hr and checked how these kinase inhibitors would affect the membrane and cytoplasmic level of 67LR and KRS. In FIG. 10, A549 cells were transfected with Myc-KRS and incubated for 24 h. The cells were treated with the indicated chemicals and then with laminin as above. Myc-KRS was immunoprecipitated, and immunoblotted with anti-p-Thr, -Ser, and -Tyr antibodies. In FIG. 11, A549 cells were transfected with Myc-KRS and cultivated for 24 hr. The transfectants were pre-treated with LY294002 for 3 hr and then treated with laminin for 1 h. Myc-KRS was immunoprecipitated and co-precipitation of 67LR was determined by Western blotting. […] EPRS (glutamyl-prolyl-tRNA synthetase) was immunoprecipitated with its specific antibody (AbCam), and co-immunoprecipitation of KRS was determined by Western blotting (upper). […]"}, "[1]": {"tested_on": "membrane translocation of KRS", "assay": "Laminin-dependent membrane translocation of KRS and 67LR, cell fractionation and Western blotting", "assay_type": "cell-based", "conditions": "A549 cells; laminin 10 ug/ml, time course; FIG. 7", "procedure": "In FIG. 7, A549 cells were treated with laminin (10 ug/ml) and the level of 67LR, 37LRP and KRS was determined by Western blotting at the indicated times. Hsp90 and Cadherin were used as markers for cytoplasm and membrane, respectively. In FIG. 8, A549 cells untreated or treated with laminin for 1 h were subjected to immunofluorescence staining with anti-67LR (MLuC5, Santacruz, sc-59732) (red) and -KRS antibodies (green). In FIG. 9, A549 cells were treated with U73122 (U), staurosporin (ST) and LY294002 (LY) that inhibit PLC-gamma, PKC and PI3K, respectively, for 3 hr, then with laminin for 1 hr and checked how these kinase inhibitors would affect the membrane and cytoplasmic level of 67LR and KRS. In FIG. 10, A549 cells were transfected with Myc-KRS and incubated for 24 h. The cells were treated with the indicated chemicals and then with laminin as above. Myc-KRS was immunoprecipitated, and immunoblotted with anti-p-Thr, -Ser, and -Tyr antibodies. In FIG. 11, A549 cells were transfected with Myc-KRS and cultivated for 24 hr. The transfectants were pre-treated with LY294002 for 3 hr and then treated with laminin for 1 h. Myc-KRS was immunoprecipitated and co-precipitation of 67LR was determined by Western blotting. IgG was used as a control for immunoprecipitation. In FIG. 12, A549 cells were cultivated in the absence and presence of laminin and LY294002 as indicated. EPRS (glutamyl-prolyl-tRNA synthetase) was immunoprecipitated with its specific antibody (AbCam), and co-immunoprecipitation of KRS was determined by Western blotting (upper). The immune-depleted supernatant (ID) were subjected to Western blottingting with anti-KRS and -EPRS antibodies.\nThe cells were lysed with 20 mM Tris-HCl (pH 7.4) buffer containing 150 mM NaCl, 0.5% TritonX-100, 0.1% SDS, and protease inhibitor. The protein extracts were incubated with normal IgG and protein G agarose for 2 hr and then centrifuged to remove nonspecific IgG binding proteins. […]"}},
  "data": [
    {"substance": "laminin: laminin (Engelbreth-Holm-Swarm murine sarcoma) from Sigma", "values": [
      {"measurement": "association of KRS with EPRS", "setting": "KRS and EPRS", "value": "decreased"},
      {"measurement": "membrane level of KRS and 67LR", "setting": "[1]", "value": "gradually increased"}
    ]}
  ]
}
